Structures can show the parent of a compound that is named as a salt.
What follows are compounds tested against catalytic domain of human PARP14 (Homo sapiens (Human), UniProt Q460N5) (assay: Enzymatic assay for inhibition of PARP14 (DELFIA, auto-modification with biotin-NAD)). Settings: auto-modification of PARP14 by biotin-NAD, 50 nM PARP14, 3 μM biotin-NAD.
Assay type: biochemical
Procedure: An N-terminal His-TEV fusion tag was used to purify the protein from cell lysates. The His-TEV tag was left on the protein for use in the enzymatic assay.
Enzymatic inhibition of PARP14 was measured using a dissociation-enhanced lanthanide fluorescence immunoassay (DELFIA) monitoring the auto-modification of PARP14 by biotinylated nicotinamide adenine dinucleotide (biotin-NAD). 1 μL of a dose response curve of each test compound was spotted in 384-well nickel-coated white microplates (Thermo) using a Mosquito (TTP Labtech). Reactions were performed in a 50 μL volume by adding 40 μL of PARP14 in assay buffer (20 mM HEPES pH==8, 100 mM NaCl, 0.1% bovine serum albumin, 2 mM DTT and 0.002%0 Tween20), incubating with test compound at 25° C. for 30 min, then adding 10 μL of biotin-NAD (Biolog). The final concentrations of PARP14 and biotin-NAD are 50 nM and 3 μM, respectively. Reactions proceeded at 25° C. for 3 h, then were quenched with 5 μL of 10 mM unmodified nicotinamide adenine dinucleotide (Sigma-Aldrich). The quenched reactions were washed 3 times with 100 μL of TBST wash buffer (50 mM Tris-HCl, 150 mM NaCl and 0.1% Tween20). Next, to the washed and dried plate was added 25 μL of DELFIA Europium-N1 streptavidin (Perkin Elmer) diluted in DELFIA assay buffer (Perkin Elmer). After a 30 min incubation at 25° C., the plate was washed 5 times with TBST wash buffer. Finally, 25 μL of DELFIA enhancement solution was added. After a 5 min incubation the plate was read on an Envision platereader equipped with a LANCE/DELFIA top mirror (Perkin Elmer) using excitation of 340 nm and emission of 615 nm to measure the amount of Europium present in each well, informing on the amount of biotin-NAD that was transferred in the automodification reaction.
[formula] where ex615cmpd is the emission from the compound treated well, ex615min is the emission from the rucaparib treated positive control well and ex615max is the emission from the DMSO treated negative control well.
The % inhibition values were plotted as a function of compound concentration and the following 4-parameter fit was applied to derive the IC50 values:
[formula] where top and bottom are normally allowed to float, but may be fixed at 100 or 0 respectively in a 3-parameter fit. The Hill Coefficient is normally allowed to float but may also be fixed at 1 in a 3-parameter fit. Y is the % inhibition and X is the compound concentration.

Sequence of catalytic domain of human PARP14 (Q460N5 1611-1801): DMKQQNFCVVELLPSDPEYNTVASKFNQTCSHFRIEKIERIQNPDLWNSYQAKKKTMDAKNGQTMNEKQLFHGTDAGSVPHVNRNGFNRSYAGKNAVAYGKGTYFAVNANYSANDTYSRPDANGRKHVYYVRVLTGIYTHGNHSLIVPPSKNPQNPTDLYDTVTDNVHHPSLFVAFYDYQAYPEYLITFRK

SMILES	IC50
Cc1cccc2c(=O)[nH]c(CS[C@H]3CCC[C@H](N)CC3)nc12 (relative stereo) [Example 54, 2-(((trans-4-Aminocycloheptyl)thio)methyl)-8-methylquinazolin-4(3H)-one Trifluoroacetate]	1000 to 10000 nM
Cc1cccc2c(=O)[nH]c(CS[C@H]3CCC[C@@H](N)CC3)nc12 (relative stereo) [Example 55, 2-(((cis-4-Aminocycloheptyl)thio)methyl)-8-methylquinazolin-4(3H)-one Trifluoroacetate]	1000 to 10000 nM
Cc1cccc2c(=O)[nH]c(CS[C@H]3CCC[C@H](CO)C3)nc12 (relative stereo) [Example 70, 2-(((trans-3-(Hydroxymethyl)cyclohexyl)thio)methyl)-8-methylquinazolin-4(3H)-one]	1000 to 10000 nM
Cc1cccc2c(=O)[nH]c(CS[C@H]3CCC[C@@H](CO)C3)nc12 (relative stereo) [Example 71, 2-(((cis-3-(Hydroxymethyl)cyclohexyl)thio)methyl)-8-methylquinazolin-4(3H)-one]	1000 to 10000 nM
Cc1cccc2c(=O)[nH]c(CS[C@@H]3CCC[C@H](CN(C)C)C3)nc12 (relative stereo) [Example 72, 2-((((cis)-3-((Dimethylamino)methyl)cyclohexyl)thio)methyl)-8-methyl quinazolin-4(3H)-one Trifluoroacetate]	> 10000 nM
Cc1cccc2c(=O)[nH]c(CS[C@@H]3CC[C@@H](CCN)C3)nc12 (relative stereo) [Example 183, 2-((((trans)-3-(2-aminoethyl)cyclopentyl)thio)methyl)-8-methylquinazolin-4(3H)-one]	1000 to 10000 nM
O=c1[nH]c(CS[C@H]2CCNC[C@@H]2F)nc2cc(NC3CCCC3)cc(F)c12 (relative stereo) [Example 210, 7-(Cyclopentylamino)-5-fluoro-2-(((trans-3-fluoropiperidin-4-yl)thio)methyl)quinazolin-4(3H)-one Hydrochloride]	< 1000 nM
O=c1[nH]c(CS[C@H]2CCNC[C@H]2F)nc2cc(NC3CCCC3)cc(F)c12 (relative stereo) [Example 212, 7-(Cyclopentylamino)-5-fluoro-2-((((cis)-3-fluoropiperidin-4-yl)thio)methyl)quinazolin-4(3H)-one Hydrochloride]	< 1000 nM
Cc1cccc2c(=O)[nH]c(CS[C@H]3CC[C@@H](CO)OC3)nc12 (relative stereo) [Example 221, 2-(((Cis-6-(Hydroxymethyl)tetrahydro-2H-pyran-3-yl)thio)methyl)-8-methylquinazolin-4(3H)-one]	1000 to 10000 nM
O=c1[nH]c(CS[C@H]2CCNC[C@@H]2C(F)(F)F)nc2cc(NC3CCCC3)cc(F)c12 (relative stereo) [Example 222, 7-(Cyclopentylamino)-5-fluoro-2-(((trans-3-(trifluoromethyl)piperidin-4-yl)thio)methyl)quinazolin-4(3H)-one Hydrochloride]	< 1000 nM
O=c1[nH]c(CS[C@H]2CNC[C@H]2F)nc2cc(NC3CCCC3)cc(F)c12 (relative stereo) [Example 223, 7-(Cyclopentylamino)-5-fluoro-2-(((cis-4-fluoropyrrolidin-3-yl)thio)methyl)quinazolin-4(3H)-one Trifluoroacetate]	< 1000 nM
O=c1[nH]c(CS[C@H]2CCN[C@H](C(F)(F)F)C2)nc2cc(NC3CCCC3)cc(F)c12 (relative stereo) [Example 227, 7-(Cyclopentylamino)-5-fluoro-2-(((trans-2-(trifluoromethyl)piperidin-4-yl)thio)methyl)quinazolin-4(3H)-one bis Trifluoroacetate]	1000 to 10000 nM
O=c1[nH]c(CS[C@H]2CCN[C@@H](C(F)(F)F)C2)nc2cc(NC3CCCC3)cc(F)c12 (relative stereo) [Example 228, 7-(Cyclopentylamino)-5-fluoro-2-(((cis-2-(trifluoromethyl)piperidin-4-yl)thio)methyl)quinazolin-4(3H)-one hydrochloride]	1000 to 10000 nM
O=c1[nH]c(CS[C@H]2CCNC[C@H](F)C2)nc2cc(NC3CCCC3)cc(F)c12 (relative stereo) [Example 240, 7-(Cyclopentylamino)-5-fluoro-2-(((trans-6-fluoroazepan-4-yl)thio)methyl)quinazolin-4(3H)-one]	< 1000 nM
O=c1[nH]c(CS[C@H]2CCNC[C@@H](F)C2)nc2cc(NC3CCCC3)cc(F)c12 (relative stereo) [Example 241, 7-(Cyclopentylamino)-5-fluoro-2-(((cis-6-fluoroazepan-4-yl)thio)methyl)quinazolin-4(3H)-one]	< 1000 nM
NC[C@H]1CC[C@@H](SCc2nc3cc(NC4CCCC4)cc(F)c3c(=O)[nH]2)CO1 (relative stereo) [Example 242, 2-((((cis)-6-(Aminomethyl)tetrahydro-2H-pyran-3-yl)thio)methyl)-7-(cyclopentylamino)-5-fluoroquinazolin-4(3H)-one bis Hydrochloride]	1000 to 10000 nM

SMILES	IC50
Cc1cccc2c(=O)[nH]c(CS[C@@H]3CCC[C@H](CO)O3)nc12 (relative stereo) [Example 260, 2-(((Cis-6-(hydroxymethyl)tetrahydro-2H-pyran-2-yl)thio)methyl)-8-methylquinazolin-4(3H)-one]	> 10000 nM
O=c1[nH]c(CS[C@@H]2CCNC[C@H]2F)nc2cc(OCC3CC3)cc(F)c12 (relative stereo) [Example 297, 7-(Cyclopropylmethoxy)-5-fluoro-2-(((trans-3-fluoropiperidin-4-yl)thio)methyl)quinazolin-4(3H)-one hydrochloride]	1000 to 10000 nM
O=c1[nH]c(CS[C@H]2CCNC[C@H]2F)nc2cc(NCC3CCC3)c(F)cc12 (relative stereo) [Example 303, 7-((Cyclobutylmethyl)amino)-6-fluoro-2-(((cis-3-fluoropiperidin-4-yl)thio)methyl)quinazolin-4(3H)-one hydrochloride]	< 1000 nM
CN1CC[C@H](COc2cc(F)c3c(=O)[nH]c(CSC4CCOCC4)nc3c2)[C@@H](F)C1 (relative stereo) [Example 326, 5-Fluoro-7-(((trans)-3-fluoro-1-methylpiperidin-4-yl)methoxy)-2-(((tetrahydro-2H-pyran-4-yl)thio)methyl)quinazolin-4(3H)-one]	< 1000 nM
CN1CC[C@H](COc2cc(F)c3c(=O)[nH]c(CS[C@H]4CC[C@H](O)CC4)nc3c2)[C@@H](F)C1 (relative stereo) [Example 334, 5-Fluoro-7-(((trans)-3-fluoro-1-methylpiperidin-4-yl)methoxy)-2-((((trans)-4-hydroxycyclohexyl)thio)methyl)quinazolin-4(3H)-one trifluoroacetic acid]	< 1000 nM
O=c1[nH]c(CS[C@H]2CC[C@H](O)CC2)nc2cc(N[C@H]3CCC[C@@H]3F)cc(F)c12 (relative stereo) [Example 340]	< 1000 nM
O=c1[nH]c(CS[C@H]2CC[C@H](O)CC2)nc2cc(N[C@@H]3CCC[C@@H]3F)cc(F)c12 (relative stereo) [Example 341]	< 1000 nM
O=c1[nH]c(CSC2CCOCC2)nc2cc(OC[C@H]3CCNC[C@@H]3F)cc(F)c12 (relative stereo) [Example 352]	1000 to 10000 nM
O=c1[nH]c(CSC2CCOCC2)nc2cc(OC[C@H]3CCC[C@H]3O)cc(F)c12 (relative stereo) [Example 359]	< 1000 nM
O=c1[nH]c(CSC2CCOCC2)nc2cc(OC[C@H]3CNC[C@H]3F)cc(F)c12 (relative stereo) [Example 371]	< 1000 nM
CN1C[C@H](COc2cc(F)c3c(=O)[nH]c(CSC4CCOCC4)nc3c2)[C@H](F)C1 (relative stereo) [Example 372]	< 1000 nM
CN1CC[C@@H](COc2cc(F)c3c(=O)[nH]c(CSC4CCOCC4)nc3c2)[C@@H](F)C1 (relative stereo) [Example 388]	< 1000 nM
CN1CC[C@H](CNc2cc3nc(CSC4CCOCC4)[nH]c(=O)c3c(F)c2F)[C@H](F)C1 (relative stereo) [Example 408]	1000 to 10000 nM
CN1CC[C@H](SCc2nc3cc(NC4CCCC4)cc(F)c3c(=O)[nH]2)[C@@H](F)C1 (relative stereo) [Example 412]	< 1000 nM
CN1CC[C@@H](SCc2nc3cc(NC4CCCC4)cc(F)c3c(=O)[nH]2)[C@@H](F)C1 (relative stereo) [Example 413]	< 1000 nM
O=c1[nH]c(CS[C@@H]2CCNCC2F)nc2cc(OCC3CC3)cc(F)c12 (stereo in doubt) [Example 295, 7-(Cyclopropylmethoxy)-5-fluoro-2-(((cis-3-fluoropiperidin-4-yl)thio)methyl)quinazolin-4(3H)-one hydrochloride]	< 1000 nM

From patent US10562891B2, “Quinazolinones as PARP14 inhibitors” (Ribon Therapeutics Inc., priority 2017, dated 2020)
